Consider 20 compounds from patent US10858367B2, “Compounds” (GLAXOSMITHKLINE INTELLECTUAL PROPERTY DEVELOPMENT LIMITED, priority 2017, dated 2020).

The target of experiment [1] is T1, full length G2019 human LRRK2 (Homo sapiens, UniProt Q5S007, R50H).
T1 construct: made in house; host or cells: HEK293 6E cells transduced with BacMam virus (virus generated in Sf9 cells)
As to the kind of experiment: Full length G2019 human LRRK2 Inhibition Mass Spectrometry assay. It counts as biochemical. The conditions noted are these: 25 nM LRRK2 enzyme, 25 uM LRRKtide, 2 mM ATP; RapidFire mass spectrometry; read-out: pIC50 in the full length G2019 human LRRK2 Inhibition Mass Spectrometry assay (converted). An excerpt:
a. Full Length G2019 Human LRRK2 Inhibition Mass Spectrometry Assay
This assay for Leucine Rich Repeat Kinase 2 (LRRK2) inhibition is based on the direct measurement of the peptide ‘LRRKtide’ (LRRKtide: RLGRDKYKT*LRQIRQ and “*” refers to the site of phosphorylation.) and phosphorylated ‘LRRKtide’ using a high throughput RapidFire mass spectrometry assay. Inhibitors are compounds that reduce the conversion of LRRKtide to phospho-LRRKtide.
Human G2019 LRRK2 Plasmid Preparation
Primers used for PCR cloning: • pHTBV-F:SEQ ID No: 1 • LRRK2 wt-F1:SEQ ID No: 2 • LRRK2 wt-R1: SEQ ID No: 3 • LRRK2 wt-F2: SEQ ID No: 4 • LRRK2 wt-R2: SEQ ID No: 5 • LRRK2 wt-F3:SEQ ID No: 6 • pHTBV-R: SEQ ID No: 7 pHTBV1-N-Flag-hu LRRK2 was generated by PCR amplifying the full length LRRK2 sequence with N terminal Flag tag from pcDNA3.1(+)_Human_LRRK2 (NCBI Reference Sequence: NP_940980.3) with the primers described above, and cloned into pHTBV1mcs3 vector between BamHI and KpnI sites.
The G2019 full length Flag-LRRK2 coding sequence is SEQ ID No: 8.
The translated amino acid sequence for human G2019 full length N terminal flag tagged LRRK2 protein is SEQ ID No: 9.
Protein Expression & Purification a) Expression of Flag Tagged Full Length G2019 Human LRRK2
HEK293 6E cells were incubated in a 37° C. incubator with a humidified atmosphere of 5% CO2 on an orbital shaker rotating at 110 rpm. On the day of transduction, the cell viability was higher than 98% and the cell density was in the range of 1×10^6˜1.5×10^6 cells/ml. HEK293 6E cells were centrifuged at 1,000 rpm for 10 min, and then the cells were resuspended in fresh Freestyle 293 expression medium (Invitrogen: 12338) with 0.1% F-68(Invitrogen: 24040-032) but without antibiotics (G418) at density of 1×10^6 cells/ml. BacMam virus with Flag-hu LRRK2 (genotypically normal) gene was centrifuged at 40,000 g for 2 hours, then resuspended in fresh Freestyle 293 expression medium. The resuspended virus was added into the cells in at MOI of 10. The cells were incubated in a 37° C. incubator with a humidified atmosphere of 5% CO2 in air on an orbital shaker rotating at 110 rpm. Cultures were harvested at approximately 48 hours post-transduction by centrifugation at 4,000 rpm for 20 min and pellets were frozen for purification. […]
b) Purification of Flag Tagged Full Length G2019 Human LRRK2
The suspended cells were lysed by sonication on ice for 30 min (2 secs on/4 sec off, 20% amplitude), and centrifuged at 10,000 rpm for 30 minutes at 4° C. The supernatant was incubated with 1 mL per litre of cell culture of anti-Flag magnetic beads (Sigma-Aldrich: M8823) at 4° C. for 3 hours, then the beads were washed by 5 mL (5 column volume) binding buffer (50 mM Tris pH7.5@ 4 C, 500 mM NaCl, 0.5 mM EDTA, 0.1% TritonX-100, 10% glycerol, freshly add 2 mM DTT) for three times. The Flag tagged LRRK2 proteins were eluted by Elution buffer (50 mM Tris pH7.5@ 4 C, 500 mM NaCl, 0.5 mM EDTA, 0.1% TritonX-100, 10% glycerol, freshly add 2 mM DTT, 250 ug/ml Flag peptide (Sigma-Aldrich:F3290)) at 4° C. for 2 hours. Flag peptide was removed by Zeba Spin Desalting Columns, 7K MWCO (Thermo-Fisher: 89893) and the buffer of eluted LRRK2 proteins was exchanged into Storage Buffer (50 mM Tris pH7.5@4 C, 150 mM NaCl, 0.5 mM EDTA, 0.02% Triton X-100, 2 mM DTT and 50% Glycerol) using Amicon Ultra Centrifugal Filter Units (100 kD) (Merck: UFC910096). Fractions containing LRRK2 proteins were pooled, aliquoted and stored at −80° C. Protein concentration was determined by Bradford protein assay, and protein purity was analyzed by NuPAG Novex 4-12% Bis-Tris Protein Gels (Invitrogen: NP0322BOX).
Assay Protocol • 1) A 10 mM test compound was dissolved in 100% DMSO and serially diluted 1 in 4. 100 nL of this dilution series was then added to a 384 well, v bottom polypropylene plate, excluding columns 6 and 18. 100 nL of DMSO was added to columns 6 and 18 as controls wells. […]

Experiment [2] addresses T2, LRRK2 Ser935 phosphorylation in SH-SY5Y cells over-expressing recombinant full length LRRK2 (Homo sapiens, UniProt Q5S007).
T2 construct: A BacMam virus expressing full length recombinant LRRK2 was purchased from Invitrogen; host or cells: SH-SY5Y human neuroblastoma cells transduced with BacMam LRRK2 virus
Kind of experiment: Recombinant cellular LRRK2 AlphaScreen assay. It is filed as cell-based. The conditions noted are these: human neuroblastoma SH-SY5Y cells, BacMam full length LRRK2, 60 minutes with compound, read-out: pIC50 in the recombinant cellular LRRK2 AlphaScreen assay (converted). An outline of the steps: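 SH-SY5Y cells transduced with BacMam full-length human LRRK2 (MOI 50) for 24 h, then treated with compound (top final 10 μM) for 60 min at 37° C. Lysate pSer935 LRRK2 quantified by AlphaScreen using anti-pS935 and total-LRRK2 antibodies. Values from sigmoidal dose-response fit.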
(In Alpha technology, singlet oxygen from a donor bead excites a nearby acceptor bead.)

A value given as a limit tells only on which side of the number the result lay.

T1 sequence (Q5S007 with tags, fused parts or gaps R50H): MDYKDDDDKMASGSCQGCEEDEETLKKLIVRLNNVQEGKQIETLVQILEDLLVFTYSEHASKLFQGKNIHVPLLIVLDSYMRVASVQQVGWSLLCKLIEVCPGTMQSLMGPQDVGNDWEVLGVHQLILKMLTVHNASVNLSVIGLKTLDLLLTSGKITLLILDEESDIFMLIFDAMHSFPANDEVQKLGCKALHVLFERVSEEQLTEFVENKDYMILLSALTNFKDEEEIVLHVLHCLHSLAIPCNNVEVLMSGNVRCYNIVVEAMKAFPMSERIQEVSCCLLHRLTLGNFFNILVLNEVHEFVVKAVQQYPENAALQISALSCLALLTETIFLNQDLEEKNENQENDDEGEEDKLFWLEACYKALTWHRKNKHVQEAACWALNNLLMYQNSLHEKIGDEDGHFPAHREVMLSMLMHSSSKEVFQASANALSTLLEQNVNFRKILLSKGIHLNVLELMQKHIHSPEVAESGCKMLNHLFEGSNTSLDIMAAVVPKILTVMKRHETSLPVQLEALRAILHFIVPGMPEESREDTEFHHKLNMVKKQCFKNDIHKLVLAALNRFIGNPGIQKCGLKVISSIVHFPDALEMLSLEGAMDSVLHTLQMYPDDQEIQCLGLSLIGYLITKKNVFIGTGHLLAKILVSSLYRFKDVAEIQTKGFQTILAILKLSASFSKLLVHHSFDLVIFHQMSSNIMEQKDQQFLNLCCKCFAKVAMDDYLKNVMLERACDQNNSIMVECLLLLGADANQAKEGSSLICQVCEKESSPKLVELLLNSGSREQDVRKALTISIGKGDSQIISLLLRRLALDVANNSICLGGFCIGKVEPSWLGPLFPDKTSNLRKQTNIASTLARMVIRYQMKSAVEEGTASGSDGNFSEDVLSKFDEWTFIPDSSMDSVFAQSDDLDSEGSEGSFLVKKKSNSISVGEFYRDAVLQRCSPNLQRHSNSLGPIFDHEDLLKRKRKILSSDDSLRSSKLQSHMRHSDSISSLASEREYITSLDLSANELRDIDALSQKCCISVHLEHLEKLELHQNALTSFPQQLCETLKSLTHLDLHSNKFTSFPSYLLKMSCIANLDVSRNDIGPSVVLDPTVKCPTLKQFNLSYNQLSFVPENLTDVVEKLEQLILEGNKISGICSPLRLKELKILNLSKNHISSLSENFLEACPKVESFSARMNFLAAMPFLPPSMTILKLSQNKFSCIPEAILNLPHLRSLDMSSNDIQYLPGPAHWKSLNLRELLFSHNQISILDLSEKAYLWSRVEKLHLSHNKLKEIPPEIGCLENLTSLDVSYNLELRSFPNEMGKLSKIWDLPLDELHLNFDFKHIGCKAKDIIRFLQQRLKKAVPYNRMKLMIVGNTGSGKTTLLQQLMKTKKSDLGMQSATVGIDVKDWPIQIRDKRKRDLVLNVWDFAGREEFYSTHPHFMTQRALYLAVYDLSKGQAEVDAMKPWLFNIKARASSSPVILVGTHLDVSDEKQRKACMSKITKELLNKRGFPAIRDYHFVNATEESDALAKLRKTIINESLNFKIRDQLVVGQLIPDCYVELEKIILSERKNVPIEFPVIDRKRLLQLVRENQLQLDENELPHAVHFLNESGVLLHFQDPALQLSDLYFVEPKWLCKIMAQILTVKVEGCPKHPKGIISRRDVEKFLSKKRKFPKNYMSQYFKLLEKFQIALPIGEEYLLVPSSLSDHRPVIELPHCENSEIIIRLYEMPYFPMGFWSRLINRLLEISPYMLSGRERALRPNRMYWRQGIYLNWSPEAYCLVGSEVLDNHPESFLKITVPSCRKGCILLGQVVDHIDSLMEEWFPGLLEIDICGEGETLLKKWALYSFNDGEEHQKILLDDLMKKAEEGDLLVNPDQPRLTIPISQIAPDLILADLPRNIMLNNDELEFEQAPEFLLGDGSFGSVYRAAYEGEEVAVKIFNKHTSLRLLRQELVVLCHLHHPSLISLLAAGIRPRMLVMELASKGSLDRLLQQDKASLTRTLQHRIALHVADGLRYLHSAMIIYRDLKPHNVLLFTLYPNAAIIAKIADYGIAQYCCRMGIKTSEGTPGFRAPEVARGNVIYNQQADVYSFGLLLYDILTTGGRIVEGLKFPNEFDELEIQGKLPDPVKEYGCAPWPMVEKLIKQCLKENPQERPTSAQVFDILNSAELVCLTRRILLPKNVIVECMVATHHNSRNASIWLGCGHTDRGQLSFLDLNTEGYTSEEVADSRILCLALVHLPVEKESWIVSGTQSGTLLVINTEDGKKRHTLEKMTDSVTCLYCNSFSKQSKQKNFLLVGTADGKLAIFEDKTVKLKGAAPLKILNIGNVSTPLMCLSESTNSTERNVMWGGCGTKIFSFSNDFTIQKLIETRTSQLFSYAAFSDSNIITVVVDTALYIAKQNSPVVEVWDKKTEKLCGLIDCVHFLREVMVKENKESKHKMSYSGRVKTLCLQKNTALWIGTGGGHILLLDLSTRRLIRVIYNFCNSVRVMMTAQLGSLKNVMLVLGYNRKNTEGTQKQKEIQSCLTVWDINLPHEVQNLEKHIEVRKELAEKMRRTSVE
T2 sequence (Q5S007 whole entry): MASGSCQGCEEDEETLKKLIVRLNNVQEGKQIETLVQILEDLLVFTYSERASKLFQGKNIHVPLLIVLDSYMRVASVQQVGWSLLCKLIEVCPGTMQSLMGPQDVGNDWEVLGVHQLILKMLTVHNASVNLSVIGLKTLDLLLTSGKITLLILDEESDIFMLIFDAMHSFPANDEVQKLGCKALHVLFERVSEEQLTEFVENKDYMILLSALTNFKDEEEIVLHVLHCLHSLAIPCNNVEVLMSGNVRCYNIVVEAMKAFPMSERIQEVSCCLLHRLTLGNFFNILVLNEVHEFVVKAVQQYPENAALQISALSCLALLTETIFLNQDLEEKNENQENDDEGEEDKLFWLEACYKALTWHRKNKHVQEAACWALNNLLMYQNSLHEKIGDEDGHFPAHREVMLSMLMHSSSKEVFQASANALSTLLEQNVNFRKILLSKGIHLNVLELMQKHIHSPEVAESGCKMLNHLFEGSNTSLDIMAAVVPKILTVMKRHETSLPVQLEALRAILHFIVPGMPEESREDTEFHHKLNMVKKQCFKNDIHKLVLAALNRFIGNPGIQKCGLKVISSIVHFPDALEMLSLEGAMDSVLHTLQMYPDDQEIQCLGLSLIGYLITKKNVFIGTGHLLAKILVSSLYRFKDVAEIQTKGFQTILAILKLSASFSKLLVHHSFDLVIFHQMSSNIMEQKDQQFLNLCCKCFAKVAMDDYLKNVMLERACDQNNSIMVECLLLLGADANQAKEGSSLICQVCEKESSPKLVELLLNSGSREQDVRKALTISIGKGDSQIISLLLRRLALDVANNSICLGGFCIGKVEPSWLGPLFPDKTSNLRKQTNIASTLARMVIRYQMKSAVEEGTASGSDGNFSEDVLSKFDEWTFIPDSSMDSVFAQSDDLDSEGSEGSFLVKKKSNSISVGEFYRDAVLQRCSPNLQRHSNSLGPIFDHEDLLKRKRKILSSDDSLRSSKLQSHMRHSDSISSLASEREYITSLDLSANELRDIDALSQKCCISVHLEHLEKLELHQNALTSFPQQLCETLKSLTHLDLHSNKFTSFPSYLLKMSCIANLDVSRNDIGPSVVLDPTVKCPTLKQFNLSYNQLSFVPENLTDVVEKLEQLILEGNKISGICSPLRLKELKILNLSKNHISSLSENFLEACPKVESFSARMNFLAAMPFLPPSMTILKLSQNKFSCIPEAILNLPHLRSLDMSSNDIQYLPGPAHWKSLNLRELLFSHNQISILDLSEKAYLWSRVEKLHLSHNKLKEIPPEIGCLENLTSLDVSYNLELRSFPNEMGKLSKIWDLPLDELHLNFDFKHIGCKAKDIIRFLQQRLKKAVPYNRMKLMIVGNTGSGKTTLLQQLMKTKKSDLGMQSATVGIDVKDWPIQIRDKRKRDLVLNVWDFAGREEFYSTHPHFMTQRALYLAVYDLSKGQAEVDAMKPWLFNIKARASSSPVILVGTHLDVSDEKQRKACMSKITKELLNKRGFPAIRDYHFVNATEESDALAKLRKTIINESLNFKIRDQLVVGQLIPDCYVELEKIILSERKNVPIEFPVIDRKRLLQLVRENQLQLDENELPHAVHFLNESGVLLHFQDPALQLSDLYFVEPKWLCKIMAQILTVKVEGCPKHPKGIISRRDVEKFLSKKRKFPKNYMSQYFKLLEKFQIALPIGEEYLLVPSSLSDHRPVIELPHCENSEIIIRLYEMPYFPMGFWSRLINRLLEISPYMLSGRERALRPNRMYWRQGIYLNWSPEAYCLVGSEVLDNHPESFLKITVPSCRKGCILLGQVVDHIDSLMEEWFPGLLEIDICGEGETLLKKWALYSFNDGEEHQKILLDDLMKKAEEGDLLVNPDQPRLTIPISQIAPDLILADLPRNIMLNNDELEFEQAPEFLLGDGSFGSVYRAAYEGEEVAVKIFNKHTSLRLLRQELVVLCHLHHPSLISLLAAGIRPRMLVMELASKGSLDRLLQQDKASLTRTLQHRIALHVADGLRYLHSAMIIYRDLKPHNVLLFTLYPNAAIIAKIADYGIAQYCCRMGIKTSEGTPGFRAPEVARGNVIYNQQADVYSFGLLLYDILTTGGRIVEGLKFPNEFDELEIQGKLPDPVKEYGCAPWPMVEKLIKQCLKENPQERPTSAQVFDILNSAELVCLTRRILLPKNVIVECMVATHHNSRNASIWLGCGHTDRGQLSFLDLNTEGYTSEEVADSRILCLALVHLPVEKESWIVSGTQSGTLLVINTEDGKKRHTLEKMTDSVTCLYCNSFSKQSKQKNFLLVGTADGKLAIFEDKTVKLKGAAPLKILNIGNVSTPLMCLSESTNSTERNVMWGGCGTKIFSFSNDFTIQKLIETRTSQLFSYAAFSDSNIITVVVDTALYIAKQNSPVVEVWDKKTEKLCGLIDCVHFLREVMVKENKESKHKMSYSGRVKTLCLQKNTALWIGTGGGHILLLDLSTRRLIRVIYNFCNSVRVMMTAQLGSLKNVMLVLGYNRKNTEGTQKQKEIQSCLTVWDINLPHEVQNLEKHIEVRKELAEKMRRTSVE

`Cc1nc(N2CC3(CO)CC2CO3)cc(-n2ncc3cc(C)c(C4CCN(C5COC5)CC4)cc32)n1` (centres unmarked) [Example E166, (5-(2-methyl-6-(5-methyl-6-(1-(oxetan-3-yl)piperidin-4-yl)-1H-indazol-1-yl)pyrimid-in-4-yl)-2-oxa-5-azabicyclo[2.2.1]heptan-1-yl)methanol]: in experiment [1], the IC50 was ≤ 100 nM.

Turning to `Cc1nc(N2C[C@H]3C[C@@H]2CO3)cc(-n2ncc3cc(C)c(C4CCN(C5CCOC5)CC4F)cc32)n1` (single isomer, unassigned) [Example E148], in experiment [1], the IC50 was ≤ 100 nM.

`Cc1nc(N2C[C@@H]3C[C@H]2CO3)cc(-n2ncc3cc(C)c(C4CCN(C5CCOC5)CC4F)cc32)n1` (single isomer, unassigned) [Example E150]: the IC50 in experiment [1] is ≤ 100 nM.

As to `Cc1nc(N2C[C@H]3C[C@@H]2CO3)cc(-n2ncc3cc(C)c(C4CCN(CCS(C)(=O)=O)CC4)cc32)n1` [Example E170, (1R,4R)-5-(2-methyl-6-(5-methyl-6-(1-(2-(methylsulfonyl)ethyl)piperidin-4-yl)-1H-indazol-1-yl)pyrimidin-4-yl)-2-oxa-5-azabicyclo[2.2.1]heptane], in experiment [1], the IC50 was ≤ 100 nM.

Consider `Cc1nc(N2C[C@H]3C[C@@H]2CO3)cc(-n2ncc3cc(C)c(C4CCN(C(=O)CO)CC4)cc32)n1` [Example E53, 1-(4-(1-(6-((1R,4R)-2-oxa-5-azabicyclo[2.2.1]heptan-5-yl)-2-methylpyrimidin-4-yl)-5-methyl-1H-indazol-6-yl)piperidin-1-yl)-2-hydroxyethanone], for which, in experiment [2], the IC50 is ≤ 1000 nM.

As for `COc1nc(N2C[C@@H]3C[C@H]2CO3)cc(-n2ncc3cc(C)c(C4CCN(C5CCOC5)CC4)cc32)n1` (single isomer, unassigned) [Example E15], the IC50 in experiment [2] is ≤ 1000 nM.

Take `[2H]C([2H])([2H])Oc1nc(N2C[C@H]3C[C@@H]2CO3)cc(-n2ncc3cc(C)c(C4CCN(C5COC5)CC4)cc32)n1` [Example E72, (1R,4R)-5-(6-(5-methyl-6-(1-(oxetan-3-yl)piperidin-4-yl)-1H-indazol-1-yl)-2-(trideuteriummethoxy)pyrimidin-4-yl)-2-oxa-5-azabicyclo[2.2.1]heptane]: the IC50 in experiment [2] was ≤ 10 nM.

`COc1nc(N2CC3CC2CO3)cc(-n2ncc3cc(C)c(C4CCN(C5COC5)CC4O)cc32)n1` (single isomer, unassigned) [Example E132]: the IC50 in experiment [2] was ≤ 1000 nM.

Regarding `COc1nc(N2C[C@H]3C[C@@H]2CO3)cc(-n2ncc3ccc(OC4(C)CC4)cc32)n1` [Example E3, (1R,4R)-5-(2-methoxy-6-(6-(1-methylcyclopropoxy)-1H-indazol-1-yl)pyrimidin-4-yl)-2-oxa-5-azabicyclo[2.2.1]heptane], in experiment [2], the IC50 is ≤ 1000 nM.

As to `Cc1nc(N2C[C@@H]3C[C@H]2CO3)cc(-n2ncc3cc(C)c(C4CCN(CCC(=O)O)CC4F)cc32)n1` (single isomer, unassigned) [Example E157], the IC50 in experiment [2] was ≤ 1000 nM.

`COc1nc(N2CC3CC(C2)O3)cc(-n2ncc3cc(C)c(C4CCN(C5COC5)CC4)cc32)n1` [Example E43, 3-(2-Methoxy-6-(5-methyl-6-(1-(oxetan-3-yl)piperidin-4-yl)-1H-indazol-1-yl)pyrimidin-4-yl)-6-oxa-3-azabicyclo[3.1.1]heptane]: the IC50 in experiment [2] is ≤ 1000 nM.

In the case of `Cc1nc(N2C[C@H]3C[C@@H]2CN3C2COC2)cc(-n2ncc3cc(C)c([C@H]4CC[C@@](C)(O)CC4)cc32)n1` [Example E29, Cis-1-methyl-4-(5-methyl-1-(2-methyl-6-((1R,4R)-5-(oxetan-3-yl)-2,5-diazabicyclo[2.2.1]heptan-2-yl)pyrimidin-4-yl)-1H-indazol-6-yl)cyclohexanol], the IC50 in experiment [2] was ≤ 1000 nM.

Consider `Cc1nc(N2C[C@H]3C[C@@H]2CO3)cc(-n2ncc3cc(C)c(C4CCN(C5COC5)CC4(C)O)cc32)n1` (single isomer, unassigned) [Example E147], for which, in experiment [2], the IC50 is ≤ 1000 nM.

For the compound `COc1nc(N2C[C@@H]3C[C@H]2CO3)cc(-n2ncc3cc(C)c(C4CCN(CCC(=O)O)CC4F)cc32)n1` (single isomer, unassigned) [Example E161], the IC50 in experiment [2] was ≤ 1000 nM.

Consider `Cc1nc(N2C[C@H]3C[C@@H]2CO3)cc(-n2ncc3cc(C)c(C4CCN(C5COC5)CC4)cc32)n1` [Example E39, (1R,4R)-5-(2-methyl-6-(5-methyl-6-(1-(oxetan-3-yl)piperidin-4-yl)-1H-indazol-1-yl)pyrimidin-4-yl)-2-oxa-5-azabicyclo[2.2.1]heptane], for which the IC50 in experiment [2] was ≤ 1000 nM.

As to `Cc1nc(N2CC3CC(C2)C3C(=O)O)cc(-n2ncc3cc(C)c(C4CCOCC4)cc32)n1` (centres unmarked) [Example E80, 3-{2-Methyl-6-[5-methyl-6-(tetrahydro-pyran-4-yl)-indazol-1-yl]-pyrimidin-4-yl}-3-aza-bicyclo[3.1.1]heptane-6-carboxylic Acid], the IC50 in experiment [2] was ≤ 1000 nM.

With `COc1nc(N2C[C@H]3C[C@@H]2CO3)cc(-n2ncc3cc(C)c(C4CCN(CCF)CC4)cc32)n1` [Example E37, (1R,4R)-5-(6-(6-(1-(2-fluoroethyl)piperidin-4-yl)-5-methyl-1H-indazol-1-yl)-2-methoxypyrimidin-4-yl)-2-oxa-5-azabicyclo[2.2.1]heptane], the IC50 in experiment [2] was ≤ 1000 nM.

Consider `Cc1nc(N2CC3CC(C2)C3C(=O)O)cc(-n2ncc3cc(C)c([C@H]4CC[C@@](C)(O)CC4)cc32)n1` (single isomer, unassigned) [Example E77, Cis-3-{6-[6-(4-Hydroxy-4-methyl-cyclohexyl)-5-methyl-indazol-1-yl]-2-methyl-pyrimidin-4-yl}-3-aza-bicyclo[3.1.1]heptane-6-carboxylic Acid], for which, in experiment [2], the IC50 was ≤ 1000 nM.

On to `COc1nc(N2C[C@@H]3C[C@H]2CO3)cc(-n2ncc3cc(Cl)c(C4CCN(C5COC5)CC4)cc32)n1` [Example E6, (1S,4S)-5-(6-(5-chloro-6-(1-(oxetan-3-yl)piperidin-4-yl)-1H-indazol-1-yl)-2-methoxypyrimidin-4-yl)-2-oxa-5-azabicyclo[2.2.1]heptane], for which, in experiment [2], the IC50 is ≤ 1000 nM.

On to `Cc1nc(N2C[C@H]3C[C@@H]2CO3)cc(-n2ncc3cc(C)c(C4CCN(C5COC5)CC4C)cc32)n1` (stereo partly drawn) [Example E55, (1R,4R)-5-(2-methyl-6-(5-methyl-6-(3-methyl-1-(oxetan-3-yl)piperidin-4-yl)-1H-indazol-1-yl)pyrimidin-4-yl)-2-oxa-5-azabicyclo[2.2.1]heptane], for which, in experiment [2], the IC50 was ≤ 1000 nM.
